Test results: patent US20190125735A1, “INHIBITION OF P38 MAPK FOR THE TREATMENT OF CANCER” (Board of Regents, The University of Texas System, priority 2015, published 2019)
pIC50: −log10 of the molar value. Read-outs that look alike come from different tables or passages of the source. One block for each molecule: values may come before it. Where a SMILES comes first, the peptide text is derived from it. The star is where a group is joined. Cbz = O=C(OCc1ccccc1)*

Experiments:
HMLER-Snail cells = assay: Sphere formation in ultra-low attachment plates, HMLER-Snail cells; assay type: cell-based; details: Homo sapiens, cultured 7-10 days, spheres >75 μm, read-out: Concentration of the drug that induced 50% reduction in sphere formation
Procedure: (§1) (A) HMLER-Snail cells were treated with various p38 inhibitors. Cells were seeded in ultra-low attachment plates and cultured for 7-10 days. Spheres with a diameter greater than […] were counted. The data are reported as the number of spheres formed/1000 seeded cells±SEM. […] (B) SUM159 cells were treated with various p38 inhibitors. Cells were seeded in ultra-low attachment plates and cultured for 7-10 days. Spheres with a diameter greater than 75 μm were counted. The data are reported as the number of spheres formed/1000 seeded cells±SEM. […] (C) HMLE-Snail cells were treated with various p38 inhibitors. Cells were seeded in ultra-low attachment plates and cultured for 7-10 days. Spheres with a diameter greater than 75 μm were counted. The data are reported as the number of spheres formed/1000 seeded cells±SEM. […] (D) Western blots of HMLER-Snail cell treatment with various p38 inhibitors on Day 2 of treatment.

SUM159 cells = assay: Sphere formation in ultra-low attachment plates, SUM159 cells; assay type: cell-based; details: Homo sapiens, cultured 7-10 days, read-out: Concentration of the drug that induced 50% reduction in sphere formation
Procedure: as §1

[1] = tested on: BCR-ABL+ mouse ALL cells seeded on MSCs (OP9 cells); assay: Clinical compound library screen, imatinib-pretreated MSC / BCR-ABL+ ALL cell co-culture; assay type: cell-based
Procedure: The effectiveness of the compounds was determined in preventing cluster formation by microscopy and the toxicity of the compounds by bioluminescence imaging of co-cultured MSCs and leukemic cells.
The clinical compounds library was purchased from the John S. Dunn Gulf Coast Consortium for Chemical Genomics (Houston, Tex.). […] Then, luciferase-labeled BCR-ABL+ mouse ALL cells were seeded on to the MSCs. Treatment was continued for 1 day, and the samples were evaluated via phase-contrast microscopy for the formation of leukemic cell clusters underneath the pretreated MSCs. To determine the compounds' toxicity in MSCs or leukemic cells, we examined the MSC/ALL cell co-cultures via microscopy and/or bioluminescence imaging.
Phase-contrast images of co-cultured MSCs and ALL cells were obtained using an Axio Observer.Z1 microscope, an AxioCam MR camera, and AxioVision software (Zeiss, Oberkochen, Germany). For screening, a cluster was defined as a group of more than five leukemic cells under the MSCs. The total number of leukemic cell clusters was the average number of clusters from three different fields (10× objective). For post-screening experiments, a cluster was defined as a group of more than 10 leukemic cells under the MSCs. The total number of leukemic cell clusters was the average number of clusters from 10 different fields (10× objective).

HMLE-Snail cells = assay: Sphere formation in ultra-low attachment plates, HMLE-Snail cells; assay type: cell-based, human; details: cultured 7-10 days; for pIC50: Homo sapiens, read-out: Concentration of the drug that induced 50% reduction in sphere formation
Procedure: as §1

FOXC2 protein = assay: Western blots of FOXC2 protein in HMLER-Snail cells; assay type: cell-based; details: Homo sapiens, 48 h, Day 2 of treatment, read-out: Concentration of the drug that induced 50% reduction in FOXC2 protein
Procedure: as §1

LNCaP cells = assay: MTS cell survival assay, LNCaP cells over-expressing FOXC2; assay type: cell-based, human; details: LNCaP cells with FOXC2 expression
Source text: Since FOXC2 is induced downstream of several different EMT inducers, and is by itself capable of potentiating the effects of multiple independent EMT signals (Taube et al., 2010), it was queried how ectopic expression of FOXC2 would impact the behavior of epithelial-like LNCaP cells, which are androgen-dependent. […] Again, FOXC2-induced EMT was associated with a reduction in PSA-promoter activity (as determined by loss in GFP) (FIG. 3A-lower panel), as well as loss in AR expression (FIGS. 3B,C).
(§2) Immunoblotting, Immunofluorescence, RTPCR, wound healing- and tumorsphere assays were performed as previously described (Sarkar et al., 2015). Cell viability (MTS) was assessed using the CellTiter96 Aqueous One-Solution Cell Proliferation Assay kit (Promega).

DU145 cells [2] = details: parental DU145 cells, even at 10 μM; cited from earlier work
DU145 cells [3] = assay: DU145 subcutaneous tumors in NOD/SCID mice; assay type: in vivo; details: subcutaneous dosing 5 days/week; SB203580 0.2 μmols per mouse, Enzalutamide 10 mg/kg; vs vehicle
Procedure: To investigate the effect of inhibition of FOXC2-dependent EMT/CSC attributes on tumor formation in vivo, NOD/SCID mice were subcutaneously injected with DU145 cells and began treatment in vivo, after formation of palpable tumors.
Immediately after sacrificing the mice, ˜100 μl blood was isolated via venipuncture in EDTA-treated collection tubes and stored on ice. Within 30 minutes, the blood was spun down at 1200 rpm for 5 minutes, and the pellet resuspended in 1 ml ACK-lysing buffer (Life Tech) and further incubated for 3-5 minutes. Cells were washed once with PBS, resuspended in RPMI with 10% FBS and pen/strep, and cultured on 10 cm tissue culture dishes. RFP-positive colonies (originating from the labeled DU145 cells injected into mice) were counted after 3-4 days in culture and quantified.
˜4 week-old male NOD.CB17-Prkdcscid/J mice were purchased from the Jackson Laboratory (Maine, USA). […] Once palpable tumors were discernable, tumor-bearing mice were randomly segregated into 4 groups, and drug treatment was initiated every 24 hours for 5 days/week. […] Investigators were blinded to the group allocation while assessing experimental outcomes. At the end of the treatment period, tumors were excised, average diameter calculated using calipers, and tumor weight noted. […]

DU145 cells [4] = assay: MTS cell survival assay, DU145 cells; assay type: cell-based, human
Procedure: as §2

FOXC2 = FOXC2 protein levels by immunoblotting in mammary cell lines; assay type: cell-based, human; details: pre-treatment with 10 μM MG132
Procedure: Immortalized human mammary epithelial (HMLE) cells expressing empty vector (pWZL), Snail, Twist, Goosecoid (GSC), or an activated form of TGFβ1, V12H-Ras-transformed HMLE (HMLER) and HMLER-FOXC2 cells were maintained as previously described (Elenbaas et al., 2001) For 4-hydroxy-tamoxifen (4-OHT) treatment, HMLE-Snail-ER or HMLE-Twist-ER cells were exposed to 20 nM 4-OHT for the indicated number of days. MCF7, MDA-MB-231 and SUM159 human breast cancer cells and the 4T1 mouse mammary carcinoma cells were cultured as described. Human non-tumorigenic MCF10A cells were cultured as described (Hollier et al., 2013), and treated with 2.5 ng/ml TGFβ1 for 3 days to elicit EMT.
Immunoblotting and immunofluorescence (Mani et al., 2008) were performed as previously described. Primary antibodies were as follows: β-actin (Sigma, St Louis, Mo., USA; A3853), mouse anti-human FOXC2 (Dr. Naoyuki Miura, Hamamatsu University School of Medicine, Japan), goat polyclonal anti-FOXC2 (Santa Cruz Biotechnology, Dallas, Tex., USA; sc-21397), p-p38 (Cell Signaling, Danvers, Mass., USA; 4511), p38 (Cell Signaling; 9211), E-cadherin (BD Biosciences, San Jose, Calif., USA; 61081), fibronectin (BD Biosciences; 610077), vimentin (Novus Biologicals, Littleton, Colo., USA; NB200-623), ZEB1 (Novus Biologicals; NBP1-05987), and HA (Covance, Princeton, N.J., USA; MMS-101P).

DU145 cells [5] = assay: Tumorsphere assay, DU145 cells; assay type: cell-based, human; details: DU145, LY364947 1 μM
Procedure: (§3) Cell lines: Authenticated LNCaP, DU145, and PC3 cells were procured from ATCC and cultured in RPMI with 10% fetal bovine serum (FBS) with penicillin/streptomycin. Cells overexpressing EMT transcription factors and shRNA were also cultured in the same media. HEK293T cells were cultured in DMEM with 10% FBS and penicillin/streptomycin. All cell lines used for this study were recently confirmed negative for mycoplasma contamination.
as §2

DU145 cells [6] = assay: Morphology and marker expression (qRTPCR, immunoblotting, IF) in DU145 cells; assay type: cell-based, human; details: DU145, LY364947 1 μM
Procedure: as §3, §2

[7] = imatinib 5 μM + compound 6.6 μM (dexamethasone 50 nM), 3 days pretreatment + 1 day

pIC50 (HMLER-Snail cells): 4.30
pIC50 (SUM159 cells): 4.30
SMILES: NC(=O)c1ccc(N(C(N)=O)c2c(F)cccc2F)nc1-c1ccc(F)cc1F [VX-702]
Imatinib-induced leukemic cell cluster formation [1, 7]: directly prevented imatinib-induced leukemic cell cluster formation
Inhibition of sphere formation (HMLE-Snail cells): did not inhibit sphere formation

SMILES: COc1cc2c(cc1OC)[C@@H]1C(=O)c3ccc4c(c3O[C@@H]1CO2)C=CC(C)(C)O4 [DEGUELIN]
Imatinib-induced leukemic cell cluster formation [1, 7]: directly prevented imatinib-induced leukemic cell cluster formation

pIC50 (HMLER-Snail cells): 8.00
pIC50 (SUM159 cells): 7.00
pIC50 (FOXC2 protein): 7.30
pIC50 (HMLE-Snail cells): 6.52
SMILES: CNC(=O)c1ccc(C)c(-n2c(C)cc(OCc3ccc(F)cc3F)c(Br)c2=O)c1 [PH797804]

SMILES: Cc1ccc(NC(=O)c2ccc(CN3CCN(C)CC3)cc2)cc1Nc1nccc(-c2cccnc2)n1 [imatinib]
Phosphorylation of PDGFR-α/β (MSCs): reduced phosphorylation of PDGFR-α/β
Phosphorylation of ATF2 (MSCs; vs control): higher phosphorylation of ATF2 than control

pIC50 (HMLER-Snail cells): 8.00
pIC50 (SUM159 cells): 6.52
pIC50 (HMLE-Snail cells): 5.52
SMILES: CC(C)(C)Cn1c(N)nc2ccc(-c3[nH]c(C(C)(C)C)nc3-c3ccc(F)cc3)nc21 [LY2228820]

SMILES: CNCc1ccc(-c2[nH]c3cc(F)cc4c3c2CCNC4=O)cc1 [AG014699]
Imatinib-induced leukemic cell cluster formation [1, 7]: eliminated the leukemic cell clusters by eliciting toxicity toward clustered leukemic cells

SMILES: CNC(=O)c1ccc(N2C(=S)N(c3ccc(C#N)c(C(F)(F)F)c3)C(=O)C2(C)C)cc1F [Enzalutamide]
Resistance of cells to the drug (cell survival) (LNCaP cells): increasingly resistant
Sensitivity of cells to the drug (DU145 cells [2]): insensitive
Tumor size (volume and weight) (DU145 cells [3]): no appreciable change in tumor size
Sensitivity of cells to the drug (cell survival) (DU145 cells [4]; DU145 with FOXC2 suppression, 100 nM Enzalutamide): more sensitive

SMILES: CC(C)C[C@@H](C=O)NC(=O)[C@H](CC(C)C)NC(=O)[C@H](CC(C)C)NC(=O)OCc1ccccc1 [MG132] (Cbz-Leu-Leu-Leu-aldehyde)
Proteolytic degradation of FOXC2 following SB203580 treatment (FOXC2): rescued the proteolytic degradation of FOXC2

SMILES: Oc1ccc(-c2nc(-c3ccc(F)cc3)c(-c3ccncc3)[nH]2)cc1 [SB202190, 4-(4-fluorophenyl)-2-(4-hydroxyphenyl)-5-(4-pyridyl)-1H-imidazole]
Imatinib-induced leukemic cell cluster formation [1, 7]: directly prevented imatinib-induced leukemic cell cluster formation

SMILES: Cc1c[nH]c(-c2cnc(NCCNc3ccc(C#N)cn3)nc2-c2ccc(Cl)cc2Cl)n1 [CHIR99021]
Imatinib-induced leukemic cell cluster formation [1, 7]: directly prevented imatinib-induced leukemic cell cluster formation

SMILES: C[C@@H](N)[C@H]1CC[C@H](C(=O)Nc2ccncc2)CC1 [Y-27632]
Imatinib-induced leukemic cell cluster formation [1, 7]: directly prevented imatinib-induced leukemic cell cluster formation

SMILES: c1ccc(-c2[nH]ncc2-c2ccnc3ccccc23)nc1 [LY364947]
Tumorsphere-forming capacity (DU145 cells [5]): markedly reduced tumorsphere-forming capacity
FOXC2 expression and p38 signaling (DU145 cells [6]): concomitant loss in FOXC2 expression and p38 signaling

SMILES: O=C1NC(=O)c2c1c1c3ccccc3n3c1c1c2c2ccccc2n1C1CCC3O1 [SB218078]
Imatinib-induced leukemic cell cluster formation [1, 7]: directly prevented imatinib-induced leukemic cell cluster formation

SMILES: Cc1ccc([N+](=O)[O-])cc1S(=O)(=O)N(C)/N=C/c1cnc2ccc(Br)cn12 [PIK75]
Imatinib-induced leukemic cell cluster formation [1, 7]: eliminated the leukemic cell clusters by eliciting toxicity toward clustered leukemic cells

SMILES: CC(=O)O[C@@]12CO[C@@H]1C[C@H](O)[C@@]1(C)C(=O)[C@H](O)C3=C(C)[C@@H](OC(=O)[C@H](O)[C@@H](NC(=O)OC(C)(C)C)c4ccccc4)C[C@@](O)([C@@H](OC(=O)c4ccccc4)[C@H]21)C3(C)C [Docetaxel]
Resistance of cells to the drug (cell survival) (LNCaP cells): increasingly resistant
Susceptibility of cells to the drug (cell survival) (DU145 cells [4]; DU145 with loss of FOXC2 expression, 100 nM Docetaxel): more susceptible

SMILES: O=C(c1cc(Cc2n[nH]c(=O)c3ccccc23)ccc1F)N1CCN(C(=O)C2CC2)CC1 [AZD2281]
Imatinib-induced leukemic cell cluster formation [1, 7]: eliminated the leukemic cell clusters by eliciting toxicity toward clustered leukemic cells

SMILES: CN1CCN(c2ccc3nc(-c4c(N)c5c(F)cccc5[nH]c4=O)[nH]c3c2)CC1 [CHIR258]
Imatinib-induced leukemic cell cluster formation [1]: eliminated the leukemic cell clusters by eliciting toxicity toward clustered leukemic cells
